# Test results taken from patent US20150105429A1, “BENZYL SULFONAMIDE DERIVATIVES AS RORC MODULATORS” (Genentech, Inc., priority 2011, published 2015).
# Biological target: T1, RORc ligand binding domain (Homo sapiens, UniProt P51449)
# T1 construct: host or cells: E. coli
# T1 sequence (P51449 269-508 limits assumed): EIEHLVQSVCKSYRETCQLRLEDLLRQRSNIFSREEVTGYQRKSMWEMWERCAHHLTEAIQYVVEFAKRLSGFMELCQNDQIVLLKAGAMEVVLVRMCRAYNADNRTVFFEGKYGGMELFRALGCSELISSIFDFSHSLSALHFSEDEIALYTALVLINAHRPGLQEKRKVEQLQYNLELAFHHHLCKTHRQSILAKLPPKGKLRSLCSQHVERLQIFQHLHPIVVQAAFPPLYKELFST
# Experiment: In Vitro RORc Ligand Binding Assay
# Details: radioligand 25-[3H]hydroxycholesterol 6 nM; 0.6 ug/mL RORc receptor; 3 h at 25° C.; read-out: IC50 values (micromolar) for RORc affinity
# Description: This assay was used to determine a compound's potency in inhibiting activity of RORc by determining, Kiapp, IC50, or percent inhibition values.
# On day of the assay, 100 uL of 0.05% CHAPS (in deionized H2O) was added to all wells of the GFB Unifilter plate and allowed soak for 1 h. A wash buffer of 50 mM HEPES (pH 7.4), 150 mM NaCl, and 5 mM MgCl2 was prepared to wash the filter plate. To prepare an assay buffer, BSA was added to the wash buffer to reach 0.01% and DTT was added to reach 1 mM.
# The 20× compound stocks were diluted in DMSO with Assay Buffer 4-fold to reach 5× the final test concentration in 25% DMSO (10 uL compound+30 uL Assay Buffer). Solutions were mixed by aspiration several times with a pipette set on 50 uL volume. For the assay, 10 uL of 5× compound stock solutions in 25% DMSO were added to the assay plate in duplicate.
# For two point screening, 10 mM stock compound solutions were diluted in DMSO to obtain 200 uM (20× the high test concentration) and then diluted 10-fold further to reach 20 uM (20× the low test concentration). The 20× stocks were diluted 4-fold with Assay Buffer (10 uL compound+30 uL Assay Buffer) to reach 5× the test concentrations (50 uM and 5 uM) and 10 uL were added to two assay plates for the duplicate wells. With each concentration tested on 2 plates, each set of 80 compounds used 4 assay plates (1 uM and 10 uM, with n=2).
# For 25-hydroxycholesterol in 25% DMSO/75% Assay Buffer; 10 uL per well was used for NSB samples. Wells for Total Binding and No Receptor sample determination contained 10 uL of 25% DMSO/75% Assay Buffer per well.
# Radioligand (25-[^3H]hydroxycholesterol) Preparation
# Added 20 uL to all wells to reach 6 nM final in the assay.
# Stock receptor solution was diluted in assay buffer to obtain 1.5 ug/mL in Assay Buffer. 20 uL was added to all wells. For No R samples, 20 uL Assay Buffer was substituted for receptor solution.
# Assay plates were 96-well polypropylene V-bottom plates. 10 uL of 5× compound in 25% DMSO/75% Assay Buffer was added to Test wells. 10 uL of 25% DMSO/75% Assay Buffer was added to Total Binding or No Receptor wells. 10 uL of 5 uM 25-hydroxycholesterol in 25% DMSO/75% Assay Buffer was added to NSB wells. […] 20 uL of 1.5 ug/mL RORc receptor was added to wells (or 40 uL Assay Buffer to No R wells). Following addition to the wells, the plates were incubated 3 h at 25° C.
# Using a Packard Filtermate Harvester, the filter plates were washed 4 times following transfer of the incubated samples. Plates were dry-filtered completely (2 h at 50° C. or overnight at room temperature). 50 uL Microscint 0 was added to all wells and read on Topcount protocol Inverted.
# Final concentrations were as follows: 50 mM HEPES buffer (pH 7.4); 150 mM NaCl; 1 mM DTT; 5 mM MgCl2; 0.01% BSA; 5% DMSO; 0.6 ug/mL RORc receptor; 6 nM 25-[^3H]hydroxycholesterol. For NSB wells, 1 uM 25-hydroxycholesterol was also present.
row,Compound,IC50
1,"CNC(=O)c1ccc(-c2ccc(CN(CC(C)C)S(=O)(=O)Cc3ccccc3)s2)cn1 [Compound 51, 5-{5-[(Isobutyl-phenylmethanesulfonyl-amino)-methyl]-thiophen-2-yl}-pyridine-2-carboxylic acid methylamide]",4.4 µM
2,"CC(C)CN(Cc1ccc(-c2cc(F)c(CO)c(S(C)(=O)=O)c2)s1)S(=O)(=O)Cc1ccccc1 [Compound 63, N-((5-(3-fluoro-4-(hydroxymethyl)-5-(methylsulfonyl)phenyl)thiophen-2-yl)methyl)-N-isobutyl-1-phenylmethanesulfonamide]",5 µM
3,"CC(C)CN(Cc1ccc(-c2cccnc2)s1)S(=O)(=O)Cc1ccccc1 [Compound 37, N-Isobutyl-C-phenyl-N-(5-pyridin-3-yl-thiophen-2-ylmethyl)-methanesulfonamide]",1.7 µM
4,"CC(C)CN(Cc1ccc(-c2cccc(S(C)(=O)=O)c2)s1)S(=O)(=O)C1CCCC1 [Compound 60, Cyclopentanesulfonic acid isobutyl-[5-(3-methanesulfonyl-phenyl)-thiophen-2-ylmethyl]-amide]",1.8 µM

# The next lines start with the values.
row,IC50,Compound
1,1.4 µM,"CC(C)CN(Cc1ccc(-c2cccc(S(C)(=O)=O)c2)s1)S(=O)(=O)Cc1ccc(F)cc1 [Compound 30, C-(4-Fluoro-phenyl)-N-isobutyl-N-[5-(3-methanesulfonyl-phenyl)-thiophen-2-ylmethyl]-methanesulfonamide]"
2,0.168 µM,"CC(C)CN([C@@H](C)c1ccc(-c2ccc(S(C)(=O)=O)cc2)cc1)S(=O)(=O)Cc1ccccc1 [Compound 18, N-Isobutyl-N-[(S)-1-(4′-methanesulfonyl-biphenyl-4-yl)-ethyl]-C-phenyl-methanesulfonamide]"
3,0.128 µM,"CC(C)CN([C@H](C)c1ccc(-c2ccc(C(N)=O)cc2)cc1)S(=O)(=O)Cc1ccccc1 [Compound 14, 4′-[(R)-1-(Isobutyl-phenylmethanesulfonyl-amino)-ethyl]-biphenyl-4-carboxylic acid amide]"
4,0.074 µM,"CC(C)CN(Cc1ccc(-c2ccc(S(C)(=O)=O)cc2)c(C#N)c1)S(=O)(=O)Cc1ccccc1 [Compound 69, N-((2-cyano-4′-(methylsulfonyl)-[1,1′-biphenyl]-4-yl)methyl)-N-isobutyl-1-phenylmethanesulfonamide]"
